Assay results reported in patent publication US20180117171A1, “IMMUNOCONJUGATES FOR PROGRAMMING OR REPROGRAMMING OF CELLS” (President and Fellows of Harvard College, priority 2015, published 2018).
Where no end group is shown, it is not given here.

Columns and labels:
[1] = system: CD4+ T cells from OT-II mice; assay: CD4 T cell proliferation with peptide-MPS stimulated BMDCs; type: cell-based; conditions: compared to peptide stimulation only
Description: FIG. 54A-C are a set of graphs showing the effect of peptide-MPS conjugates on CD4 T cell proliferation, as evaluated in vitro. BMDCs were stimulated with […] (peptide) (SEQ ID NO: 19), […] (SEQ ID NO: 19) conjugated to MPS through SMCC (SMCC), and […] BMDCs were then washed thoroughly and co-cultured with CD4^+ T cells from OT-II mice. OT-II mice are enriched for CD4^+ T cells recognizing the […] (SEQ ID NO: 20) peptide.

[2] = system: bone marrow derived dendritic cells (BMDCs); assay: antigen presentation of […]-MPS conjugate by BMDCs (flow cytometry); type: cell-based; conditions: 18 hours, versus peptide adsorbed to MPS
Description: FIG. 53 is a pair of graphs evaluating the antigen presentation of […] (SEQ ID NO: 18)-MPS conjugate. […] Percentage of BMDCs presenting the peptide was quantified using flow cytometry.

[3] = system: mononuclear cells isolated from the bone marrow; assay: DC induced in vitro from bone marrow cells with GM-CSF with or without TSLP, VIP or TGF-β; type: cell-based, C57BL/6 mice; conditions: for expression of IL-6 and IL-12: GM-CSF in the presence of factor, bacterial stimulation, compared to GM-CSF alone
Description: The surface phenotypes of CD11c+DC in the BM culture were monitored by flow cytometry and the proportionality of each phenotype is expressed as a percent (%) of the total mononuclear cells (MNC) (FIG. 5, Table 1).
The present invention provides for a material-based local application of GM-CSF with appropriate DC influencing factors that leads to tolerogenic DCs (tDCs), and subsequent enrichment of iTreg cells. Candidate biofactors include thymic stromal lymphopoietin (TSLP), vasoactive intestinal peptide (VIP), and transforming growth factor-beta (TGF-β). Screening is based on the induced DC's anti-inflammatory properties. […] Overall, these observations that the combination of GM-CSF with TSLP efficiently induces DC with an anti-inflammatory phenotype.

Substance: CISQAVHAAHAEINEAGR (SEQ ID NO: 19) conjugated to MPS through SMCC: ovalbumin CD4 epitope conjugated to MPS through stable SMCC linker (also: conjugated to MPS via SMCC linker)
- CD4 T cell proliferation [1]: significantly higher T cell proliferation

Substance: CISQAVHAAHAEINEAGR (SEQ ID NO: 19) conjugated to MPS through SPDP: ovalbumin CD4 epitope conjugated to MPS through reducible SPDP linker (also: conjugated to MPS via SPDP linker)
- CD4 T cell proliferation [1]: significantly higher T cell proliferation

Substance: SPDP CSIINFEKL (SEQ ID NO: 18)-MPS: ovalbumin CD8 epitope CSIINFEKL conjugated to MPS through reducible SPDP linker (also: SPDP linker to MPS)
- BMDCs presenting the peptide ([2]; 10 nM): significantly better presented
- BMDCs presenting the peptide ([2]; 100 nM): comparable levels

Substance: TGF-β
- CD11c+/CD86+ in total BM cells ([3]; 7 day incubation): 10.5%
- expression of IL-6 and IL-12 [3]: diminished expression

Substance: TSLP: thymic stromal lymphopoietin
- expression of IL-6 and IL-12 [3]: diminished expression

Substance: VIP: vasoactive intestinal peptide (HSDAVFTDNYTRLRKQMAVKKYLNSILN; ends and bridges not checked; UniProt P01282 125-152, looked up)
- expression of IL-6 and IL-12 [3]: diminished expression
- IL-10 production by induced DC ([3]; GM-CSF plus factor (100 ng/ml), 7 days, bacterial challenge): did not up-regulate
